Source: ChEMBL document CHEMBL4725259 (Bioorg Med Chem, 2020)
Activity calls are given as the source filed them. No cut-off for these calls is given here.

Experiments:
[1] = biological target: C-C chemokine receptor type 8 (Homo sapiens, UniProt P51685); assay: Antagonist activity at human CCR8 expressed in CHO-K1 cells by PathHunter beta-arrestin assay; assay type: cell-based
[2] = biological target: T1, CX3C chemokine receptor 1 (Homo sapiens, UniProt P49238); assay: Antagonist activity at human CX3CR1 expressed in CHO-K1 cells by PathHunter beta-arrestin assay; assay type: cell-based
T1 sequence (P49238 whole entry): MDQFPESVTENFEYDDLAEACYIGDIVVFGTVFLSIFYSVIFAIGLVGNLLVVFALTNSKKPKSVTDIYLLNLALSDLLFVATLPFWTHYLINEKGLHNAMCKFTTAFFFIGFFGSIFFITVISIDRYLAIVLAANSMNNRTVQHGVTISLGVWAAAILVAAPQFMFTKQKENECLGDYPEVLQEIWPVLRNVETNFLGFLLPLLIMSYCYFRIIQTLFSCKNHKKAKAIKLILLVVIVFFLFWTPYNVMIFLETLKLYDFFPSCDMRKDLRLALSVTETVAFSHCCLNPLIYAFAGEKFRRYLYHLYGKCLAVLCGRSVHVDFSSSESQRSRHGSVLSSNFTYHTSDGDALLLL

[3] = biological target: T2, 5-hydroxytryptamine receptor 2C (Homo sapiens, UniProt P28335); assay: Antagonist activity at HTR2C in human U2OS cells by PathHunter beta-arrestin assay; assay type: cell-based
T2 sequence (P28335 whole entry): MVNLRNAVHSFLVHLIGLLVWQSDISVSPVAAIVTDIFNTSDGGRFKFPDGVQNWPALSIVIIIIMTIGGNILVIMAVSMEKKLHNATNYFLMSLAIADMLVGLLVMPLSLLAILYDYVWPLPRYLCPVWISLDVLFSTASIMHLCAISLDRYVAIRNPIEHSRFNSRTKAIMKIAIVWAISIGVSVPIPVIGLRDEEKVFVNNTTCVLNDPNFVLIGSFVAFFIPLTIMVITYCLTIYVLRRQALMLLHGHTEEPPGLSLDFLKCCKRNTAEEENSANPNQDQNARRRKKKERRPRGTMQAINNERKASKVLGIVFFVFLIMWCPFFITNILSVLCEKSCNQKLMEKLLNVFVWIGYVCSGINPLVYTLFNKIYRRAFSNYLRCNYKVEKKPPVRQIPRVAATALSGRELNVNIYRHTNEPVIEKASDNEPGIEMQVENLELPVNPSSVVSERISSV

[4] = biological target: Vasopressin V1a receptor (Homo sapiens) (UniProt P37288); assay: Antagonist activity at AVPR1A in human U2OS cells at 20 uM by PathHunter beta-arrestin assay; assay type: cell-based; details: filed as antagonist
Sequence of Vasopressin V1a receptor (Homo sapiens) (P37288 whole entry, looked up): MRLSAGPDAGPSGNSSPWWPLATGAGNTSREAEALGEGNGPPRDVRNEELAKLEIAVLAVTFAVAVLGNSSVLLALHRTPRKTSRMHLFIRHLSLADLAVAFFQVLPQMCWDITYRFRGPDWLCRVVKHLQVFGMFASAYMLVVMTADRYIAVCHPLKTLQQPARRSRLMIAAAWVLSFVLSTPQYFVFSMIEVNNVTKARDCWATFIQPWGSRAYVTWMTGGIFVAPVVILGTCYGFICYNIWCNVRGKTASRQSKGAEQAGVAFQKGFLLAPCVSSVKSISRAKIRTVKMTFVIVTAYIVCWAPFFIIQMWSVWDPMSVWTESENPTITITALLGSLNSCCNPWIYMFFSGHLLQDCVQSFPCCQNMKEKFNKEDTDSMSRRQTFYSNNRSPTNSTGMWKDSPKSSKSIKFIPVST

[5] = biological target: D(2) dopamine receptor (Homo sapiens) (UniProt P14416); assay: Antagonist activity at human DRD2L expressed in CHO-K1 cells at 20 uM by PathHunter beta-arrestin assay relative to control; assay type: cell-based; details: filed as antagonist
Sequence of D(2) dopamine receptor (Homo sapiens) (P14416 whole entry): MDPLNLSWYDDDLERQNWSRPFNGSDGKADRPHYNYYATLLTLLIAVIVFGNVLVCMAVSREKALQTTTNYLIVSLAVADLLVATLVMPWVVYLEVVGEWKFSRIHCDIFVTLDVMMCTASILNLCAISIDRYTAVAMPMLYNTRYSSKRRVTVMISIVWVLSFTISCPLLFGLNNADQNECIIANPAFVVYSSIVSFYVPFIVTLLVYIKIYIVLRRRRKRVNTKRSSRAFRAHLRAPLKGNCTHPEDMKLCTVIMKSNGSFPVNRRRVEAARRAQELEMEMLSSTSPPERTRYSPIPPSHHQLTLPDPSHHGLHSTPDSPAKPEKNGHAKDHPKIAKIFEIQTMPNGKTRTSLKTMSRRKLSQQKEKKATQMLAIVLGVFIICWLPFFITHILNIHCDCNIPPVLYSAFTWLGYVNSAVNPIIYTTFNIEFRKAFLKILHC

Vasopressin V2 receptor = Vasopressin V2 receptor (Homo sapiens, UniProt P30518); assay: Antagonist activity at human AVPR2 by PathHunter beta-arrestin assay
Sequence of Vasopressin V2 receptor (P30518 whole entry): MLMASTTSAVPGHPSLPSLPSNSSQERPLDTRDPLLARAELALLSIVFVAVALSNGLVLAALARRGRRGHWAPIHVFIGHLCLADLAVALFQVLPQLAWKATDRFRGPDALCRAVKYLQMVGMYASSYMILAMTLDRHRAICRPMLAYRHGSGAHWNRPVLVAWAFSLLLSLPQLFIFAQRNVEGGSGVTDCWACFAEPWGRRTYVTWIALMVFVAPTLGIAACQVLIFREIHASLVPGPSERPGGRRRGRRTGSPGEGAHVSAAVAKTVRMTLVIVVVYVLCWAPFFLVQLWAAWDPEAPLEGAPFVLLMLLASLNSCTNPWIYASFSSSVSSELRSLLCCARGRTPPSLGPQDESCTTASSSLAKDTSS

Sequence of C-C chemokine receptor type 8 (P51685 whole entry): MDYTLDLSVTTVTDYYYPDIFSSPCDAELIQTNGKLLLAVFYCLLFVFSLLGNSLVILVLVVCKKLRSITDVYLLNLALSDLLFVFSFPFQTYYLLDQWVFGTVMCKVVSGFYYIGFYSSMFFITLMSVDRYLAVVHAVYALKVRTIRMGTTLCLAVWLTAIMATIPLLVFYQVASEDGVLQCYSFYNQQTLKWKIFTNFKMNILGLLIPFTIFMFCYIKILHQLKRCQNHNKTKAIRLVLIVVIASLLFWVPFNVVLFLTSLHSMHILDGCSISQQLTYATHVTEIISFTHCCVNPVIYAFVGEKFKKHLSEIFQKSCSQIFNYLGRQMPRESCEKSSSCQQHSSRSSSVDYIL

| IC50 [1] | IC50 [2] | IC50 [3] | inhibition [4] | inhibition [5] | IC50 (Vasopressin V2 receptor) | IC50 (Vasopressin V2 receptor; read-out: IC50) | SMILES |
| --- | --- | --- | --- | --- | --- | --- | --- |
| 7.29 µM | 8.47 µM | 0.18 µM | – | – | – | – | COC(=O)[C@@H]1[C@H]2C[C@@H](c3[nH]c4ccccc4c3CCn3cc(-c4cccc(Cl)c4)nn3)N(C#N)C[C@@H]2CC[C@@H]1O |
| – | – | – | Active | 9% | Dose-dependent effect | 0.459 µM | COC(=O)[C@@H]1[C@H]2C[C@@H]3N(CC[C@@]34C(=O)N(Cc3cccc(OC)c3)c3ccccc34)C[C@@H]2CC[C@@H]1OCc1cccc(OC)c1 |
